Experimental data published in PubChem BioAssay (NCI).
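Results reflect a 48-hour exposure of cells in 96-well plates to compound at five concentrations. GI50 = concentration required for 50% inhibition of growth. Definition used: TGI = concentration required for complete inhibition of growth.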

Columns and labels:
Assay in all cases: NCI tumour cell line growth inhibition, 48 h
[1] = test system: DLD-1 colon
[2] = test system: HOP-18 NSCLC
[3] = test system: KM20L2 colon
[4] = test system: LXFL 529 NSCLC
[5] = test system: M19-MEL melanoma
[6] = test system: SNB-78 CNS
[7] = test system: DMS 114 small cell lung
[8] = test system: P388 leukemia
[9] = test system: P388/ADR leukemia
[10] = test system: SN12K1 renal

| SMILES | TGI [1] [µM] | TGI [2] [µM] | TGI [3] [µM] | TGI [4] [µM] | TGI [5] [µM] | TGI [6] [µM] | TGI [7] [µM] | TGI [8] [µM] | TGI [9] [µM] | TGI [10] [µM] | GI50 [1] [µM] | GI50 [2] [µM] | GI50 [3] [µM] | GI50 [8] [µM] | GI50 [9] [µM] | GI50 [10] [µM] | GI50 [6] [µM] |
| --- | --- | --- | --- | --- | --- | --- | --- | --- | --- | --- | --- | --- | --- | --- | --- | --- | --- |
| CCN(CC)CCNc1ccc2ncn3c4ccc(O)cc4c(=O)c1c23 | 15.1 | 33.3 | 14.9 | 17.6 | 17.1 | 17.6 |  |  |  |  |  |  |  |  |  |  |  |
| C=CCNC(=O)C(C)C1CCC2(C)C=CC(=O)C(C)=C2C1O (configuration not stated) | > 100 | > 100 | > 100 |  | > 100 | > 89.1 | > 100 | > 100 | > 100 | > 100 |  |  |  |  |  |  |  |
| C=C(C#N)C(=O)OCC(CC)CC.C=C(C#N)C(=O)OCC(CC)CC.CS(C)=O.CS(C)=O.Nc1c(N=Nc2ccc(-c3ccc(N=Nc4cc(S(=O)(=O)[O-])c5ccccc5c4N)cc3)cc2)cc(S(=O)(=O)[O-])c2ccccc12.[Pt+2] | > 77.8 | 53.9 | > 100 |  |  | > 95.6 |  | > 100 | > 100 | 40.1 | 28.2 | 22 | > 100 | 29.6 | 27.2 | 19.7 | 38.8 |
| O=C1C(Cl)N(c2ccccc2Cl)C1c1c[nH]c2ccccc12 (configuration not stated) |  |  | > 100 |  | > 100 |  | > 100 |  |  |  |  |  |  |  |  |  |  |
